Source: patent publication US20140335132A1, “BINDING DRUGS WITH NANOCRYSTALLINE CELLULOSE (NCC)” (priority 2010, published 2014)
Structures can show the parent of a compound that is named as a salt.

Key:
[1] = Binding of hydrophilic drugs to NCC; format: physicochemical; settings: for final mass of drug bound to NCC for the release studies: 2.5 mg NCC, distilled water then 10 mM NaCl, DOX solution 325 μg/ml, TET solution 1000 μg/ml; for binding efficiency / maximum mass of drug bound to NCC: 2 mg NCC
Method: NCC Drug Binding Procedure: Doxorubicin hydrochloride (DOX) or tetracycline hydrochloride (TET), were dissolved in either 10 mM phosphate buffered saline (PBS) at pH 7.4, or dH2O with increasing drug concentrations ([drugadded]). Drug solutions (1.5 ml) were added to 0.5 ml of NCC suspension in a 2 ml microcentrifuge tube and incubated at 37° C. with tumbling shaking at 8 rpm for 30 minutes. Suspensions containing PBS or NaCl produced flocculated NCC/drug suspensions, which were centrifuged at 18000×g for 10 minutes to pellet the NCC and bound drug. The concentration of unbound drug in the supernatant ([drugunbound]) was assayed using a Varian 50 Bio UV Vis spectrophotometer (Varian, Inc., Mississauga, Ont.) using wavelengths of 482 nm and 364 nm for DOX and TET, respectively. The concentration of drug bound to the NCC ([drugbound]) was calculated using the following equation:
[drugbound]=[drugadded]−[drugunbound] (1)
In this case, the NCC/drug suspensions were transferred to dialysis bags with a molecular weight cut off of 10000 Da (Spectrum Laboratories, Inc., Rancho Dominguez, Calif.) and dialysed against distilled water overnight in the dark at 4° C. The concentration of unbound drug in the dialysate was determined by UV Vis spectroscopy, allowing for the calculation of the amount of drug bound to the NCC according to equation (1).

[2] = In vitro release of drugs from NCC in PBS; format: physicochemical; settings: 10 mM PBS, 37° C.
Method: (§1) Drug Release Procedure: DOX was bound to NCC for release studies by incubating a solution of 325 μg/ml of DOX in distilled water with a suspension containing 2.5 mg of NCC. In order to flocculate the NCC and allow for separation of the NCC/DOX nanocomplexes, NaCl was added to a final concentration of 10 mM. The suspension was centrifuged at 18000×g for 10 minutes to pellet the NCC/DOX and the drug binding was determined by UV Vis spectroscopy as described above. […] NCC/drug nanocomplexes with DTX, PTX and ETOP were prepared as described for the drug binding studies. The concentration of DTX and PTX that was incubated with the NCC suspension was 200 μg/ml and the concentration of ETOP was 100 μg/ml. […] The drug loaded NCC samples were resuspended in 1 ml of PBS followed by incubation at 37° C. with tumbling at 8 rpm. At predetermined times the suspensions were centrifuged at 18000×g for 10 minutes and the supernatant was removed for drug quantitation by UV Vis for DOX and TET or HPLC for DTX, PTX and ETOP, as previously described. At each sampling time point, fresh PBS was added to the tubes and the NCC/drug nanocomplexes were resuspended.

[3] = Binding of hydrophobic drugs to NCC/CTAB nanocomplexes; format: physicochemical; settings: for saturation of binding / binding efficiency to NCC/CTAB nanocomplexes: 12.9 mM CTAB, 2.5 mg NCC, 10 mM NaCl; for binding efficiency to NCC/CTAB nanocomplexes: 25° C., up to 100 μg of drug added; for final mass of drug bound to NCC/CTAB for the release studies: DTX and PTX incubated at 200 μg/ml, ETOP at 100 μg/ml
Method: In order to solubilize the hydrophobic drugs paclitaxel (PTX), docetaxel (DTX) and etoposide (ETOP), the surface of the NCC was first modified with CTAB. This was achieved by incubating increasing amounts of CTAB with 2.5 mg of NCC so the final CTAB concentration varied from 0 mM to 12.9 mM. An aliquot of 100 mM NaCl was added, resulting in a final NaCl concentration of 10 mM, which facilitated flocculation and subsequent separation of the NCC/CTAB nanocomplexes by centrifugation as described above. The NCC/CTAB was incubated with stock solutions of the drugs with increasing concentrations. Since these drugs are characterized by low aqueous solubility, they were solubilized in a minimal amount of either DMSO or diblock copolymer in 10 mM NaCl as previously described. The drug/NCC/CTAB suspensions were incubated at 25° C. with tumbling at 8 rpm for 30 minutes then centrifuged at 18000×g for 10 minutes to pellet the NCC/CTAB and bound drug. The amount of unbound drug in the supernatant was determined by HPLC using a Waters HPLC system with Millennium software and UV Vis detection. Separation was achieved using a Novapak™ C18 column with 20 μl injections and a mobile phase flow rate of 1 ml/min. The DTX and PTX mobile phase consisted of 58% acetonitrile, 37% dH2O and 5% methanol with detection at 232 nm. The mobile phase for ETOP was 27% acetonitrile, 1% acetic acid and 72% dH2O and detection was at 286 nm. Calibration curves were prepared for all drugs and were linear in the desired concentration range. The amount of drug bound to the NCC/CTAB was determined using equation (1).

[4] = In vitro release of drugs from NCC/CTAB nanocomplexes in PBS; format: physicochemical; settings: 12.9 mM CTAB, 10 mM PBS, 37° C.
Method: as §1

KU-7 cells = test: Cell binding and uptake of NCC/CTAB/fluorescein (fluorescence, confocal microscopy); format: cell-based
Method: FIGS. 10A, B, C and D are confocal micrographs of KU-7 cells incubated for 2 hours with NCC/CTAB/fluoroscein system with a fluorescein concentration of 0.25 mg/ml. (A) White light image of KU-7 cells. (B) Staining of the nuclei with DAPI. (C) Fluorescein in the cytoplasm. (D) An overlay of images B and C.

[5] = Retention of fluorescein bound to NCC/CTAB in aqueous media; format: physicochemical; settings: upon resuspension or dilution in aqueous media
[6] = dispersion medium PBS 10 mM, pH 7.4
[7] = dispersion medium distilled water

| SMILES | final mass of drug bound to NCC for the release studies [1] [µg] | binding efficiency [1, 6] [%] | maximum mass of drug bound to NCC [1, 6] [µg] | binding efficiency [1, 7] [%] | maximum mass of drug bound to NCC [1, 7] [µg] | bound drug released in four hours [2] | bound drug released by one day (plateau) [2] [%] | saturation of binding [3] | binding efficiency to NCC/CTAB nanocomplexes [3] | final mass of drug bound to NCC/CTAB for the release studies [3] [µg] | bound drug released within the first hour [4] | total bound drug released in two days [4] [%] | also measured |
| --- | --- | --- | --- | --- | --- | --- | --- | --- | --- | --- | --- | --- | --- |
| COc1cccc2c1C(=O)c1c(O)c3c(c(O)c1C2=O)C[C@@](O)(C(=O)CO)C[C@@H]3O[C@H]1C[C@H](N)[C@H](O)[C@H](C)O1 [DOX, Doxorubicin hydrochloride] | 212 ± 3.5 | 65 | 122 | 83 | 1667 | ~85% | 87 | – | – | – | – | – | – |
| CC(=O)O[C@@]12CO[C@@H]1C[C@H](O)[C@@]1(C)C(=O)[C@H](O)C3=C(C)[C@@H](OC(=O)[C@H](O)[C@@H](NC(=O)OC(C)(C)C)c4ccccc4)C[C@@](O)([C@@H](OC(=O)c4ccccc4)[C@H]21)C3(C)C [DTX, docetaxel] | – | – | – | – | – | – | – | approximately 200 μg | approximately 90% | 184 ± 4.8 | Approximately 26% | 59 | – |
| COc1cc([C@@H]2c3cc4c(cc3[C@@H](O[C@@H]3O[C@@H]5CO[C@@H](C)O[C@H]5[C@H](O)[C@H]3O)[C@H]3COC(=O)[C@H]23)OCO4)cc(OC)c1O [ETOP, etoposide] | – | – | – | – | – | – | – | – | 48% | 63 ± 0.1 | – | – | maximum mass of drug bound to NCC/CTAB ([3]; 100 μg of drug added): 48 µg; total drug released over four days ([4]; four days): 75% |
| CC(=O)O[C@H]1C(=O)[C@@]2(C)[C@H]([C@H](OC(=O)c3ccccc3)[C@]3(O)C[C@H](OC(=O)[C@H](O)[C@@H](NC(=O)c4ccccc4)c4ccccc4)C(C)=C1C3(C)C)[C@]1(OC(C)=O)CO[C@@H]1C[C@@H]2O [PTX, paclitaxel] | – | – | – | – | – | – | – | approximately 200 μg | approximately 90% | 149 ± 4.8 | 20% | 44 | – |
| CN(C)[C@@H]1C(O)=C(C(N)=O)C(=O)[C@@]2(O)C(O)=C3C(=O)c4c(O)cccc4[C@@](C)(O)[C@H]3C[C@@H]12 [TET, tetracycline hydrochloride] | 187 ± 2.0 | 25 | 251 | 48 | 959 | approximately 90% | 93 | – | – | – | – | – | drug loading ([1]; almost 500 μg on 2 mg of NCC): 20 % w/w; mass of drug bound to NCC ([1]; bound to 2 mg of NCC (FIG. 2)): ~500 µg |
| O=C1OC2(c3ccc(O)cc3Oc3cc(O)ccc32)c2ccccc21 [fluorescein] | – | – | – | – | – | – | – | – | – | – | – | – | time by which cellular uptake of fluorescein reached a maximum (KU-7 cells): ≤ 2 h; fluorescein remaining bound to NCC/CTAB [5]: More than 95% |
